Data taken from ChEMBL document CHEMBL5113462, “Synthesis and evaluation of inhibitors of Mycobacterium tuberculosis UGM using bioisosteric replacement” (Bioorg Med Chem, 2022).

Test system: Mycobacterium tuberculosis variant bovis
Assay: Antimycobacterial activity against Mycobacterium tuberculosis variant bovis BCG for 7 days by resazurin-based microdilution assay
Assay type: functional
Details: 168 h, time 7 day

Row | SMILES | MIC
1 | CC[C@@H](CO)NCCN[C@@H](CC)CO [ETHAMBUTOL] | 4.9 µM
2 | O=C(/C=C/c1ccccc1)N[C@@H](Cc1ccc(Cl)cc1)C(=O)O | 606 µM
3 | O=C(/C=C/c1ccccc1)N[C@@H](Cc1ccc(I)cc1)C(=O)O | 237 µM
4 | O=C(/C=C/c1ccccc1)N[C@@H](Cc1ccc([N+](=O)[O-])cc1)C(=O)O | 1270 µM
5 | O=C(/C=C/c1ccccc1)N[C@@H](Cc1ccc(Br)cc1)C(=O)O | 1070 µM
6 | O=C(/C=C/c1ccccc1)N[C@@H](Cc1ccccc1)C(=O)O | > 400 µg/mL
